2 compounds from patent US9200003B2, “Crystalline forms of 1-(5′-(5-(3,5-dichloro-4-fluorophenyl)-5-(trifluoro-methyl)-4,5-dihydroisoxazol-3-yl)-3′H-spiro[azetidine-3,1′-isobenzofuran]-1-yl)-2-(methylsulfonyl) ethanone” (Zoetis Services LLC, priority 2012, dated 2015) can be followed below.

In brackets after ≈: the same amount, converted by molar mass. Read-outs that look alike come from different tables or passages of the source.

The term solubility denotes how much of the substance goes into solution per volume.

The nature of the data set: Solubility of the solid-state forms in organic solvents. It counts as physicochemical. As to conditions: for solubility: organic solvent or mixture.

For `CS(=O)(=O)CC(=O)N1CC2(C1)OCc1cc(C3=NOC(c4cc(Cl)c(F)c(Cl)c4)(C(F)(F)F)C3)ccc12` (racemic) [crystal racemate, (S/R)-1-(5′-(5-(3,5-dichloro-4-fluorophenyl)-5-(trifluoromethyl)-4,5-dihydroisoxazol-3-yl)-3′H-spiro[azetidine-3,1′-isobenzofuran]-1-yl)-2-(methylsulfonyl)ethanone], the solubility in acetone entry (acetone, room temperature (approximately 22° C.)) is “less than 10 mg/mL”. For the same compound, the “solubility in methyl t-butyl ether” value (methyl t-butyl ether) is below 1 mg/mL.
For `CS(=O)(=O)CC(=O)N1CC2(C1)OCc1cc(C3=NO[C@@](c4cc(Cl)c(F)c(Cl)c4)(C(F)(F)F)C3)ccc12` [Form A, (S)-1-(5′-(5-(3,5-dichloro-4-fluorophenyl)-5-(trifluoromethyl)-4,5-dihydroisoxazol-3-yl)-3′H-spiro[azetidine-3,1′-isobenzofuran]-1-yl)-2-(methylsulfonyl)ethanone], the solubility reads like this: (methyl t-butyl ether, read-out: solubility in methyl t-butyl ether) 11 mg/mL (≈ 18.9 mM); (acetone, room temperature (approximately 22° C.), read-out: solubility in acetone) above 300 mg/mL.
